≈ marks a conversion by molar mass, not a printed value. Each block holds one compound with its values, some of them ahead of it.
Columns and labels:
Assay type in all cases: physicochemical
[1] = Dissolved triclosan in 80% water / 20% ethanol phase (Example 10)
Experimental: (§1) In a mixture of 80% water and 20% ethanol, solutions (3 ml) of chitosan (Protasan Cl110, 0.2%), HP.CD (0, 1.28 and 2.56 mM) and triclosan were prepared in a sufficient quantity to oversaturate the solution. These solutions were incubated for 24 h under magnetic stirring and, subsequently, filtered through a 0.45-.m filter and crosslinked by the addition of 1.2 ml of tripolyphosphate dissolved in a mixture of 80% water and 20% ethanol at a concentration of 1.25 mg/ml. The nanoparticles were isolated by centrifugation at 16000×g and resuspended in water. The size of the resulting particles and the polydispersion thereof were characterised by means of photon correlation spectroscopy (PCS). The quantity of encapsulated drug was determined by the degradation of an aliquot of the resuspended nanoparticles with the enzyme chitosanase (Chitosanase-RD, Pias Co, Japan), and the assessment was performed by means of spectrophotometry (.=280 nm).

[2] = Solubility of triclosan in the initial chitosan-cyclodextrin solutions (Example 7); conditions: aqueous with cosolvent or surfactant or cyclodextrin, thermodynamic from solid
Experimental: (§2) Nanoparticles of chitosan-cyclodextrin were obtained according to the method described in example 2, but adding a sufficient quantity of the drug triclosan to the initial solutions in order to oversaturate the solution. The drug that was not dissolved by the cyclodextrin-polymer mixture was discarded during the filtration process (through 0.45 .m) which was conducted prior to crosslinking the polymer by means of ionotropic crosslinking (see example 2). […] The triclosan was measured by means of a spectrophotometric method (.=280 nm).

[3] = Encapsulation efficiency and load of triclosan, chitosanase degradation (Example 10); conditions: 80% water/20% ethanol
Experimental: as §1

[4] = Encapsulation efficiency and load of triclosan in nanoparticles (Example 7)
Experimental: as §2
(§3) The encapsulation efficiency (EE) refers to the percentage of drug which is trapped in the chitosan-cyclodextrin system with respect to the quantity of drug added in the process of preparation of the nanoparticles. The drug load is indirectly determined from a calculation of the non-encapsulated drug which remains dissolved in the nanoparticles' suspension medium. The difference between this value and the theoretical drug content is taken to be the quantity of drug loaded in the nanoparticles. The drug load percentage which appears in the table is the percentage with respect to the quantity of encapsulated drug in 100 mg of nanoparticle.

[5] = Encapsulation efficiency and load of furosemide in nanoparticles (Example 8)
Text: as §3
The drug that was not dissolved by the cyclodextrin-polymer mixture was discarded during the filtration process (through 0.45 .m) which was conducted prior to crosslinking the polymer (see example 3). […]. […]

[6] = type HPCD •, 25 mM (first 25 mM line)
[7] = type HPCD •, 25 mM (second 25 mM line)

SMILES: Oc1cc(Cl)ccc1Oc1ccc(Cl)cc1Cl [triclosan]
dissolved triclosan ([1]; HP•CD 0 mM): 719 ± 79 mg/L
dissolved triclosan ([1]; HP•CD 1.28 mM): 2536 ± 283 mg/L
dissolved triclosan ([1]; HP•CD 2.56 mM): 3521 ± 213 mg/L
solubility ([2]; HPCD 0 mM): 68 ± 17 µg/mL (≈ 235 µM)
solubility ([2]; type HPCD •, 3.14 mM): 211 ± 24 µg/mL (≈ 729 µM)
solubility ([2]; type HPCD •, 6.29 mM): 588 ± 18 µg/mL (≈ 2030 µM)
solubility [2, 6]: 1120 ± 13 µg/mL (≈ 3870 µM)
solubility [2, 7]: 870 ± 59 µg/mL (≈ 3000 µM)
load of triclosan ([3]; HP•CD 0 mM): 2.2 ± 0.9%
triclosan EE ([3]; HP•CD 0 mM): 22.3 ± 1.4%
load of triclosan ([3]; HP•CD 1.28 mM): 7.4 ± 1.3%
triclosan EE ([3]; HP•CD 1.28 mM): 37.7 ± 7.3%
load of triclosan ([3]; HP•CD 2.56 mM): 8.7 ± 0.2%
triclosan EE ([3]; HP•CD 2.56 mM): 33.5 ± 2.7%
triclosan EE ([4]; HPCD 0 mM): 12.5 ± 8%
triclosan load ([4]; HPCD 0 mM): 0.8 ± 0.3%
triclosan EE ([4]; type HPCD •, 3.14 mM): 5.2 ± 7%
triclosan load ([4]; type HPCD •, 3.14 mM): 1.1 ± 0.2%
triclosan EE ([4]; type HPCD •, 6.29 mM): 4.8 ± 3%
triclosan load ([4]; type HPCD •, 6.29 mM): 2.2 ± 0.1%
triclosan EE [4, 6]: 5.5 ± 5%
triclosan load [4, 6]: 3.1 ± 0.1%
triclosan EE [4, 7]: 4.6 ± 4%
triclosan load [4, 7]: 2.0 ± 0.1%

furosemide EE ([5]; HPCD 0 mM): 22.3 ± 1.4%
load of furosemide ([5]; HPCD 0 mM): 0.23 ± 0.07%
furosemide EE ([5]; type HPCD •, 3.14 mM): 17.1 ± 3.0%
load of furosemide ([5]; type HPCD •, 3.14 mM): 0.89 ± 0.04%
furosemide EE ([5]; type HPCD •, 6.29 mM): 12.1 ± 1.3%
load of furosemide ([5]; type HPCD •, 6.29 mM): 1.43 ± 0.24%
furosemide EE [5, 6]: 7.2 ± 3.1%
load of furosemide [5, 6]: 2.39 ± 0.72%
furosemide EE [5, 7]: 8.8 ± 2.7%
load of furosemide [5, 7]: 1.92 ± 0.55%
SMILES: NS(=O)(=O)c1cc(C(=O)O)c(NCc2ccco2)cc1Cl [furosemide]

— patent US20080220030A1, “Nanoparticles Comprising Chitosan and Cyclodextrin” (UNIVERSIDADE DE SANTIAGO DE COMPOSTELA, priority 2005, published 2008)
